Assay results from patent US20120165310A1, “ETHER DERIVATIVES OF BICYCLIC HETEROARYLS” (NOVARTIS AG, priority 2009, published 2012).

Assays:
[1] = In vitro metabolic identification study with rat liver microsomes; format: in vitro ADME; details: for formation of the phenolic metabolite X / metabolic stability relative to ex.102 of WO02/092559: rat and human liver microsomes; for Relative peak area after incubation, Parent / Relative peak area after incubation, Phenol metabolite X: rat liver microsomes, 1 hour incubation, parent 5 μM
Procedure: (§1) In vitro metabolic identification studies with, Example 2 and Example 3 with human and rat liver microsomes are summarized in the table below in which the compounds were incubated for 1 hour with rat or human liver microsome preparations.
(§2) The metabolism of unlabelled compound was examined following in vitro incubations with liver microsomes from rat and human. The samples were analyzed by capillary-HPLC/MS^(n) and screened for potential metabolites of the compound.

IGF-1R = target: T1, IGF-1R (Homo sapiens, UniProt P08069); assay: Cellular IGF-1R assay: capture ELISA (MSD) of receptor phosphorylation in Hek293 cells; format: cell-based; details: Hek293-IGF1R cells, 1 h pre-incubation, 10 min IGF stimulation, pIGF1R capture ELISA
T1 construct: expressed in transfected cells; host or cells: Hek293 (Hek293-IGF1R)
T1 sequence (P08069 31-1367): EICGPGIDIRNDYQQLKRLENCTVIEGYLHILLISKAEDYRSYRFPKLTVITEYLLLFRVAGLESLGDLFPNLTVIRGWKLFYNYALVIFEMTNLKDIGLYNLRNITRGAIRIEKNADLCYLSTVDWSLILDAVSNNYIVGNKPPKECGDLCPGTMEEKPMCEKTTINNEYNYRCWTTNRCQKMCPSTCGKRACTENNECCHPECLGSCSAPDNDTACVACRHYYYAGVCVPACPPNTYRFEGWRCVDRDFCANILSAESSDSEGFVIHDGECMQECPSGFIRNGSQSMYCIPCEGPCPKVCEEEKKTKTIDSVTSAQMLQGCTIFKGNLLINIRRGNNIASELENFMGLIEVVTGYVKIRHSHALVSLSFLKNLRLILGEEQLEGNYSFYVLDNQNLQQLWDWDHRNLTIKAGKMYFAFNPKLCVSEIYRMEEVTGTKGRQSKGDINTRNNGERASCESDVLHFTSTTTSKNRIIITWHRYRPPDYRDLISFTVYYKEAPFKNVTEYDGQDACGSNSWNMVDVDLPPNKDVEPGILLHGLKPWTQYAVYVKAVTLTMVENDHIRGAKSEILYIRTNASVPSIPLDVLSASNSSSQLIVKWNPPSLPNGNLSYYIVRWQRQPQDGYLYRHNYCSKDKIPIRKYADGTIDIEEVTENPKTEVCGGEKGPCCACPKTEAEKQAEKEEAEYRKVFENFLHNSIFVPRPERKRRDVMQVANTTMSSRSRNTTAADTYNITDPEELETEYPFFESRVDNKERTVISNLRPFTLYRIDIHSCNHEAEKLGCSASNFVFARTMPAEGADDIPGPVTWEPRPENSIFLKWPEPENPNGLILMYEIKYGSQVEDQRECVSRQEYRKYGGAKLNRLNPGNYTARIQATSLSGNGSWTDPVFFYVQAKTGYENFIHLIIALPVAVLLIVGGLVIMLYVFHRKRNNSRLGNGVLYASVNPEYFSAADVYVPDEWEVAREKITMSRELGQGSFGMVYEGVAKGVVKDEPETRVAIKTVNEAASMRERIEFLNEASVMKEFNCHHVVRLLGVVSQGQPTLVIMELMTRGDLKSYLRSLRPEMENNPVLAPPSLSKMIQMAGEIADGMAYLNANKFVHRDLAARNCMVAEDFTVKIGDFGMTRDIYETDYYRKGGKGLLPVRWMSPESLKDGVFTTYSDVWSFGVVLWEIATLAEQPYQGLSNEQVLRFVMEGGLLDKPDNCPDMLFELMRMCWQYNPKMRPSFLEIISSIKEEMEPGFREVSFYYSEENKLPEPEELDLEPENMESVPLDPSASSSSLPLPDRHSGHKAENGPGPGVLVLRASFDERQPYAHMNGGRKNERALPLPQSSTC
Method in brief: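 IC50 from 4-parameter fit of IGF1R phosphorylation, normalised to IGF-stimulated and unstimulated controls, measured by MSD capture ELISA on lysates. Hek293-IGF1R cells in starvation medium got compound 1 h (top 10 μM, 3-fold steps, 0.1% DMSO) before a 10 min pulse of 1.0 ng/μL IGF.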

[2] = In vitro metabolic identification study with human liver microsomes; format: in vitro ADME; details: 1 hour incubation, parent 5 μM
Procedure: as §1, §2

C-Abl = C-Abl (Homo sapiens, UniProt P00519); assay: Kinase activity test, parent compound vs phenol metabolite X; format: biochemical
C-Abl, sequence (P00519 whole entry): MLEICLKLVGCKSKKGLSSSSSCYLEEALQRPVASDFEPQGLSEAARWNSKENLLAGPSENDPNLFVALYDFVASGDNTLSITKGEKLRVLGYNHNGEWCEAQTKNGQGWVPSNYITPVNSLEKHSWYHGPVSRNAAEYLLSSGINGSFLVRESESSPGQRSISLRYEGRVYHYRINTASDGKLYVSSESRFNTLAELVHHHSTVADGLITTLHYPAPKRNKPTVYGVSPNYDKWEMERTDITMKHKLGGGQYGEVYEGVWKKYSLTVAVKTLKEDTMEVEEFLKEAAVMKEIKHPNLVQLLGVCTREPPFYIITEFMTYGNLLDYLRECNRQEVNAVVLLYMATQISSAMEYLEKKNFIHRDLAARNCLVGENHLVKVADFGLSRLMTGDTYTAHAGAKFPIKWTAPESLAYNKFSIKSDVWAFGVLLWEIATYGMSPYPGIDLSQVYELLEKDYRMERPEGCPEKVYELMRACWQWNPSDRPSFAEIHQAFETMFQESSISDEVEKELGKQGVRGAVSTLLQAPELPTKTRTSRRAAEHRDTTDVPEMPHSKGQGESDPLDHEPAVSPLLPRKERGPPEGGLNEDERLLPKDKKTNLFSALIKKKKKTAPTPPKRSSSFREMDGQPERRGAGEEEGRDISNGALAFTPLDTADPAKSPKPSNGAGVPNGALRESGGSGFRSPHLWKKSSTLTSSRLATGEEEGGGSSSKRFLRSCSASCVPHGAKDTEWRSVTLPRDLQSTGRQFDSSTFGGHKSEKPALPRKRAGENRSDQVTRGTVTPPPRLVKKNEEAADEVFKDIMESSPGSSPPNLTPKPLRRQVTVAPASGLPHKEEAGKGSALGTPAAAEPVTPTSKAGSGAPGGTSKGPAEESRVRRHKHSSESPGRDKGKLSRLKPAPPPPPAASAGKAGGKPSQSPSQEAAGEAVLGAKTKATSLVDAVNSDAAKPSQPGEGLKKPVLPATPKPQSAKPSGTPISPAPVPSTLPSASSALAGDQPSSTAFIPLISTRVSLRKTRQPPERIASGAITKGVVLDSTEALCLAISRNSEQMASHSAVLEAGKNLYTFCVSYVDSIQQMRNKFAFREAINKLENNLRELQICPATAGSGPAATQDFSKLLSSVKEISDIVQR
Description: (§3) In this tests, the parent compound, ex.102 of […] is compared with the corresponding phenol metabolite.

c-src = c-src (Homo sapiens, UniProt P12931); assay: as above; format: biochemical
Description: as §3

EphB4 = target: T2, EphB4 (Homo sapiens, UniProt P54760); assay: as above; format: biochemical
T2 sequence (P54760 16-987): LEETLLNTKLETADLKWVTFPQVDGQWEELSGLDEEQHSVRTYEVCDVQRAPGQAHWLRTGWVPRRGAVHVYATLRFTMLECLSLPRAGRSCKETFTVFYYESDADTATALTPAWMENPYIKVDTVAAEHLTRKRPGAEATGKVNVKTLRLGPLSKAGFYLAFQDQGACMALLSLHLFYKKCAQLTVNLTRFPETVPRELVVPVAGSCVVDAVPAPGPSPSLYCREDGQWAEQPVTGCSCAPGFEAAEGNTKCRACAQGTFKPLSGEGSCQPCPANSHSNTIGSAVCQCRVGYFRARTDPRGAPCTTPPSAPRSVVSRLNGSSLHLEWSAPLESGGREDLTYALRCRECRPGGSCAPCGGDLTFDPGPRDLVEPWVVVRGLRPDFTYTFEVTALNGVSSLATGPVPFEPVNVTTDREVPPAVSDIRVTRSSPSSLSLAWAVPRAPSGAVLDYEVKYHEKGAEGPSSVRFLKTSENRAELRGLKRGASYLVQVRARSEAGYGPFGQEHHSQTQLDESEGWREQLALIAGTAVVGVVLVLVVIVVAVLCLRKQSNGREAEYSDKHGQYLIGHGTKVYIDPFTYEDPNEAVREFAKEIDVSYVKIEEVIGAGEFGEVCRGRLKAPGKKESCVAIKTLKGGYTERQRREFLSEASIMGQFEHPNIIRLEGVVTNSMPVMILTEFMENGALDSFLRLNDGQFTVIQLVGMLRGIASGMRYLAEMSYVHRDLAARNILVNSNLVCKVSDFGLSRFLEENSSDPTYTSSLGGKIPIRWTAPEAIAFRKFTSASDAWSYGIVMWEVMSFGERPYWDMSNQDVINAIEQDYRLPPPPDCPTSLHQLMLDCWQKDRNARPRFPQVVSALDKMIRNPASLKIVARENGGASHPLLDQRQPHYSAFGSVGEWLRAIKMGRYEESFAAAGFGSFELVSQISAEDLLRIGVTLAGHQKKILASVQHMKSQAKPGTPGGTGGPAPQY
Description: as §3

RET = RET (Homo sapiens, UniProt P07949); assay: as above; format: biochemical
RET, sequence (P07949 29-1114, species assumed): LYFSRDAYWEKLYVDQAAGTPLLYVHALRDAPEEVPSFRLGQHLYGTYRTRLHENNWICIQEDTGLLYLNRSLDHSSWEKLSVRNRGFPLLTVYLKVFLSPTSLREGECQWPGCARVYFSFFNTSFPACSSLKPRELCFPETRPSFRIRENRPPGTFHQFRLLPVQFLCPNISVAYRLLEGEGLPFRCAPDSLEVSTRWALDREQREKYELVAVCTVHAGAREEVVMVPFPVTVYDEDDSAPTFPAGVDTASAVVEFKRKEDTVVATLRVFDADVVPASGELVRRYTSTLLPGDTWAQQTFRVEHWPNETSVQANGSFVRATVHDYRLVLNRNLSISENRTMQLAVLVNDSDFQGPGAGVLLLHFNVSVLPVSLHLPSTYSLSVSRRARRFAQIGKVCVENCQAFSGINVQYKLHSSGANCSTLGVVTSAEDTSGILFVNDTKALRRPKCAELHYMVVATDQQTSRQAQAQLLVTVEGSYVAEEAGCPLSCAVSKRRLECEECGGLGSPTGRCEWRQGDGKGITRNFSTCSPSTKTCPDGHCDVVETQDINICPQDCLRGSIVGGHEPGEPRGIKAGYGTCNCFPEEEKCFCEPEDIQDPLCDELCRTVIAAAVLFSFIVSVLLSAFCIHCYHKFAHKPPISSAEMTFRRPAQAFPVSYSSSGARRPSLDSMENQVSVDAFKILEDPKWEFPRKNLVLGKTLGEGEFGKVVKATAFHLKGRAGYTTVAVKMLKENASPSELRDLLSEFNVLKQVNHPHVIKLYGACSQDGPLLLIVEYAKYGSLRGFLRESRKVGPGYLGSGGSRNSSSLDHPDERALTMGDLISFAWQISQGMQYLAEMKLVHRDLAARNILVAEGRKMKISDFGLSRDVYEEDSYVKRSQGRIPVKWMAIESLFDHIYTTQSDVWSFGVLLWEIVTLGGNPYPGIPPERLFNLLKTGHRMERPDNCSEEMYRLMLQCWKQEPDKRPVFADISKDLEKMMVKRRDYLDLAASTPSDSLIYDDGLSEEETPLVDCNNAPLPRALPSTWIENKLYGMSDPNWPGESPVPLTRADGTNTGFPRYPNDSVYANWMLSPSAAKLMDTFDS
Description: as §3

InsR = InsR (Homo sapiens, UniProt P06213); assay: as above; format: biochemical
InsR, sequence (P06213 28-1382, species assumed): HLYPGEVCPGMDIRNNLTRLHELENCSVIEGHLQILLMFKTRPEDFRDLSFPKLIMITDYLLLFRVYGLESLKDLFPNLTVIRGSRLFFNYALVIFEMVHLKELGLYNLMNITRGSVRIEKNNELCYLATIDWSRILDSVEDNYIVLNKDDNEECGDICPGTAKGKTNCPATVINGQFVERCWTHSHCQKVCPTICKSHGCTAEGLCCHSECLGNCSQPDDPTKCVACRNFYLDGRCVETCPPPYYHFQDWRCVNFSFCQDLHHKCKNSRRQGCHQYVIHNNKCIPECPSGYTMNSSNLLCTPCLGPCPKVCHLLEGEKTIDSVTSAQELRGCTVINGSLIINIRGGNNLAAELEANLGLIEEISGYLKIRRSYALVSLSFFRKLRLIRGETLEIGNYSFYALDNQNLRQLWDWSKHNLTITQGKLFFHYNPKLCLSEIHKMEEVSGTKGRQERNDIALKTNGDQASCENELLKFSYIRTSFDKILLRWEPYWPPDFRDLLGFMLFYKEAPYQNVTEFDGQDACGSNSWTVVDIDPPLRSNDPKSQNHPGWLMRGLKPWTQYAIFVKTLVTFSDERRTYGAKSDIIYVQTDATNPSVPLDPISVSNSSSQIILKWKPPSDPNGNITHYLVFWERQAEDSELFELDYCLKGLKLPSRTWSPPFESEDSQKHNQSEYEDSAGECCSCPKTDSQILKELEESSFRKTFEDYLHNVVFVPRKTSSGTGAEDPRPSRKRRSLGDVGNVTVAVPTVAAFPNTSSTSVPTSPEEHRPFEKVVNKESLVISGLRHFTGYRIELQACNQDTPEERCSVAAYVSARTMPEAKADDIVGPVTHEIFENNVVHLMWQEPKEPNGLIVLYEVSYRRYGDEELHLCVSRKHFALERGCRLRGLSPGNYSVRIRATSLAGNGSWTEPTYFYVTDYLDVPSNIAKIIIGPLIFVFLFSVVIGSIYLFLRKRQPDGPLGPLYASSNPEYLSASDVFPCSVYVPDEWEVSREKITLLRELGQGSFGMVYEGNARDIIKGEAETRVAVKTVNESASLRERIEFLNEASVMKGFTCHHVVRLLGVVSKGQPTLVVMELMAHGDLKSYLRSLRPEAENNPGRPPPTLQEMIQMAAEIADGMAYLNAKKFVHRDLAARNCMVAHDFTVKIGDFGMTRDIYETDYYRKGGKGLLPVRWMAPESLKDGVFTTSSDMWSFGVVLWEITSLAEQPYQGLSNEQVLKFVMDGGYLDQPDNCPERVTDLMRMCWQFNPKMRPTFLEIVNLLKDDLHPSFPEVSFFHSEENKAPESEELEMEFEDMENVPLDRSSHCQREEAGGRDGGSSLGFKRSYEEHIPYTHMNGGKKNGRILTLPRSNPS

SMILES: Nc1ncnc2c1c(-c1cccc(OC[C@H]3CCCCO3)c1)cn2[C@H]1C[C@@H](CN2CCC2)C1 (single isomer, unassigned) [Example 2]
- formation of the phenolic metabolite X [1]: no evidence of formation
- metabolic stability relative to ex.102 of WO02/092559 [1]: Greater metabolic stability
- Relative peak area after incubation, Parent [1]: 69.3%
- Relative peak area after incubation, Phenol metabolite X [1]: not detected
- IC50 (IGF-1R): 51 to 99 nM
- Relative peak area after incubation, Parent [2]: 90.3%
- Relative peak area after incubation, Phenol metabolite X [2]: not detected

SMILES: Nc1ncnc2c1c(-c1cccc(OC[C@@H]3CCCCO3)c1)cn2[C@H]1C[C@@H](CN2CCC2)C1 (single isomer, unassigned) [Example 3]
- formation of the phenolic metabolite X [1]: no evidence of formation
- metabolic stability relative to ex.102 of WO02/092559 [1]: Greater metabolic stability
- Relative peak area after incubation, Parent [1]: 75.8%
- Relative peak area after incubation, Phenol metabolite X [1]: not detected
- IC50 (IGF-1R): 105 to 141 nM
- Relative peak area after incubation, Parent [2]: 81.7%
- Relative peak area after incubation, Phenol metabolite X [2]: not detected

SMILES: Nc1ncnc2c1c(-c1cccc(OCC34CCC(CC3)O4)c1)cn2C1CC(CN2CC3CC2CS3)C1 [Example 227, 5-[3-(7-Oxa-bicyclo[2.2.1]hept-1-ylmethoxy)-phenyl]-7-{(trans-3-[(1S,4S)-1-(2-thia-5-aza-bicyclo[2.2.1]hept-5-yl)methyl]-cyclobutyl}-7H-pyrrolo[2,3-d]pyrimidin-4-ylamine]
- IC50 (IGF-1R): 74 nM

SMILES: Nc1ncnc2c1c(-c1cccc(OC[C@@H]3CCCO3)c1)cn2[C@H]1C[C@@H](N2CC[S+]([O-])CC2)C1 [Example 234, 7-[cis-3-(1-oxo-thiomorpholin-4-yl)-cyclobutyl]-5-{3-[(S)-1-(tetrahydro-furan-2-yl)methoxy]-phenyl}-7H-pyrrolo[2,3-d]pyrimidin-4-ylamine]
- IC50 (IGF-1R): 309 nM

SMILES: CN(C)CC1(O)CC(n2cc(-c3cccc(OCC45CCC(CC4)O5)c3)c3c(N)ncnc32)C1 (centres unmarked) [Example 235, 3-{4-Amino-5-[3-(7-oxa-bicyclo[2.2.1]hept-1-ylmethoxy)-phenyl]-pyrrolo[2,3-d]pyrimidin-7-yl}-1-dimethylaminomethyl-cyclobutanol]
- IC50 (IGF-1R): 49 nM

SMILES: Nc1ncnc2c1c(-c1cccc(OC[C@@H]3CCCO3)c1)cn2C1CC2(CNC(=O)O2)C1 (stereo partly drawn) [Example 238, 2-(4-Amino-5-{3-[(S)-1-(tetrahydro-furan-2-yl)methoxy]-phenyl}-pyrrolo[2,3-d]pyrimidin-7-yl)-5-oxa-7-aza-spiro[3.4]octan-6-one]
- IC50 (IGF-1R): 366 nM

SMILES: Nc1ncnc2c1c(-c1cccc(O)c1)cn2[C@H]1C[C@@H](CN2CCC2)C1 [Phenol metabolite X, cis-3-[4-amino-7-(3-azetidin-1-ylmethyl-cyclobutyl)-7H-pyrrolo[2,3-d]pyrimidin-5-yl]-phenol]
- IC50 (C-Abl): 47 nM
- IC50 (c-src): 4 nM
- IC50 (EphB4): 9 nM
- IC50 (RET): 8 nM
- IC50 (InsR): 3800 nM
